According to US11008549B2, “In vitro model for a tumor microenvironment” (HemoShear, LLC, priority 2013, dated 2021):
pIC50: −log10 of the molar value. Where two headings read alike, the source gives them in different places. Each block holds one molecule with its values, some of them ahead of it.

Assays:
cytochrome p450 1A/1B = experiment: Cytochrome p450 1A/1B activity (P450-GLO) in rat hepatocytes after inducer; assay type: in vitro ADME; details: controlled hemodynamics, 3-MC 0.1 μM, 48 hours, day 7
[1] = cited from earlier work; for in vivo Cmax level achieved in humans: human; for Cmax: steady state plasma Cmax, patients, established therapeutic dosing
primary rat hepatocytes [2] = experiment: Gluconeogenesis assay (AMPLEX RED glucose in supernatant); assay type: cell-based; details: 4 hours; for Effect (% Change) on glucose levels: insulin 2 nM or glucagon 100 nM; for decreased glucose levels by: insulin 2 nM
cytochrome p450 3A = experiment: Cytochrome p450 3A activity (P450-GLO) in rat hepatocytes after inducer; assay type: in vitro ADME; details: controlled hemodynamics, dexamethasone 02.5 μM, 48 hours, day 7
primary rat hepatocytes [3] = experiment: Toxicity of inducer concentration to rat hepatocytes under controlled flow; assay type: cell-based; details: 50 μM, concentration recommended for inducing static cultures
primary rat hepatocytes [4] = experiment: CDFDA/CDF bile canalicular imaging (cholestatic changes); assay type: cell-based; details: controlled hemodynamic conditions, 48 hours
Method: For imaging of the biliary activity at canalicular junctions, sections of the porous membrane of the TRANSWELL were washed with PBS and incubated with media containing 10 μM carboxy-2,7-dichlorofluorescein diacetate (CDFDA) for 10 minutes. Samples were then washed with PBS and placed on glass slide for confocal imaging.
The hepatocytes were washed with PBS and immediately incubated with the substrate 10 uM carboxy-2,7-dichlorofluorescein diacetate (CDFDA). The cells were imaged by confocal microscopy during a 20-min exposure to the nonfluorescent substrate CDFDA to allow for the hydrolysis of the substrate to the highly fluorescent Mrp-2 substrate carboxy-2,7-dichlorofluorescein (CDF) and its active secretion into the bile canalicular structures.

primary rat hepatocytes [5] = experiment: Gene expression of oxidative stress-related genes, MRP3 and MRP4 in rat hepatocytes; assay type: cell-based; details: controlled hemodynamic conditions, in vivo/clinical plasma Cmax concentrations
A549 tumor cells = experiment: Growth of A549 tumor cells in tri-cultures under tumor capillary hemodynamics (PICOGREEN cell number); assay type: cell-based; details: drug at human Cmax, day seven, tri-culture without exogenous ECM, hemodynamic flow and transport, vs vehicle
A549 cells = details: static 2D cultures, cited from earlier work
[6] = steady state plasma Cmax at therapeutic doses in mice, read-out: Mouse Cmax, cited from earlier work
rat hepatocytes [7] = experiment: In vitro fatty liver model, total triglycerides; assay type: cell-based; details: 1.5 μM, high insulin/glucose fatty liver media, controlled hemodynamics, day 7
rat hepatocytes [8] = experiment: In vitro fatty liver model, metabolic gene expression (RT-PCR); assay type: cell-based; details: 1.5 μM, high insulin/glucose fatty liver media, controlled hemodynamics, day 7
[9] = test system: primary human hepatocytes; details: 72 h, 1 μM
Method: RT-PCR: Changes in metabolic, toxic, and insulin/glucose/lipid pathway genes were assessed by extracting RNA from hepatocytes from devices run under healthy and steatotic conditions at the end of the culture period (7 or 14 days) and performing RT-PCR on this RNA. The […] were removed from the devices and washed with PBS prior to scraping the cells off the porous membrane. Total RNA was isolated using a […] RNA Mini Kit (a kit for purification of total RNA from cells) and reverse transcribed to cDNA using the ISCRIPT cDNA Synthesis Kit (a cDNA synthesis kit). Primers were designed for the metabolic genes CYP1A1, CYP1A2, CYP3A2, MDR, and GST as well as the insulin/glucose/lipid pathway genes GPAT, ACC1, IRS-2, PPAR-γ, SREBP, ChREBP, LXR, SCD1, CPT1. Primer sequences are shown below in Table 3:
RNA expression was analyzed by real-time RT-PCR using IQ SYBR Green Supermix (a PCR reagent mixture for RT-PCR) and a CFX96 Real-Time System with C1000 Thermal Cycler (an RT-PCR detection system and thermal cycler). RNA data were normalized to endogenous expression of β2-microglobulin and reported as a relative quantity compared to healthy cultures.
Human genes assessed for metabolism and toxicity experiments included CYP1A1. CYP2A6, CYP2B6, CYP2C9, CYP2D6, CYP3A4, CYP3A5, GSTA1, UGT1A1, GSR, SORD, TXNRD1, and APEX1.
Cryopreserved primary human hepatocytes thawed and plated as described above were cultured in the cone-and-plate devices under controlled hemodynamics or were cultured under static conditions (controls) for 7 days before being exposed to different concentrations of chlorpromazine (0.1 μM, 1 μM, and 10 μM) or vehicle control for 72 hours. Live-dead staining was performed on the hepatocytes with ethidium-calcein stain. Hepatocytes were also incubated with MTT reagent for 1 hour to assess viability. RNA was extracted from additional segments and RT-PCR was performed to assess selected toxicity and metabolic genes.

[10] = test system: primary human hepatocytes; details: 72 h
primary rat hepatocytes [11] = details: 4 h, 1 μM
[12] = No substrate, controlled hemodynamics
[13] = substrate Glycerol 2 mM, controlled hemodynamics
[14] = substrate Lactate/Pyruvate (20 mM/2 mM), controlled hemodynamics

Molecule: Cc1ccc2cc3c(ccc4ccccc43)c3c2c1CC3 [3-MC, 3-Methyl Cholanthrene]
- 1A/1B response (cytochrome p450 activity normalized to ATP) (cytochrome p450 1A/1B): 133.06

Molecule: C#Cc1cccc(Nc2ncnc3cc(OCCOC)c(OCCOC)cc23)c1 [erlotinib]
- in vivo Cmax level achieved in humans [1]: 1000 ng/mL

Molecule: glucagon
- Effect (% Change) on glucose levels (primary rat hepatocytes [2]; [12]): +51%
- increased glucose levels by (primary rat hepatocytes [2]; absence of a substrate, glucagon 100 nM): 51%
- Effect (% Change) on glucose levels (primary rat hepatocytes [2]; [13]): +15%
- Effect (% Change) on glucose levels (primary rat hepatocytes [2]; [14]): +80%
- increased glucose levels by further (primary rat hepatocytes [2]; substrate glycerol, glucagon 100 nM): 15%
- increased glucose produced by (primary rat hepatocytes [2]; substrates lactate and pyruvate, glucagon 100 nM): 80%

Molecule: insulin
- Effect (% Change) on glucose levels (primary rat hepatocytes [2]; [12]): −27%
- decreased glucose levels by (primary rat hepatocytes [2]; absence of a substrate): 27%
- Effect (% Change) on glucose levels (primary rat hepatocytes [2]; [13]): −38%
- Effect (% Change) on glucose levels (primary rat hepatocytes [2]; [14]): −25%
- decreased glucose levels by (primary rat hepatocytes [2]; substrate glycerol): 38%
- decreased glucose levels by (primary rat hepatocytes [2]; substrates lactate and pyruvate): 25%

- 3A response (cytochrome p450 activity normalized to ATP) (cytochrome p450 3A): 57.53
Molecule: C[C@@H]1C[C@H]2[C@@H]3CCC4=CC(=O)C=C[C@]4(C)[C@@]3(F)[C@@H](O)C[C@]2(C)[C@@]1(O)C(=O)CO [Dexamethasone, dexamethasone]
- toxicity in the controlled flow system (primary rat hepatocytes [3]): toxic

Molecule: N.N.O=C([O-])C1(C(=O)[O-])CCC1.[Pt+2] [carboplatin]
- in vivo Cmax level achieved in humans [1]: 37000 ng/mL

- changes in bile canalicular pattern (primary rat hepatocytes [4]; 40 uM): much more prominent and extensive
Molecule: Cc1c(C)c2c(c(C)c1O)CCC(C)(COc1ccc(CC3SC(=O)NC3=O)cc1)O2 (centres unmarked) [troglitazone]
- changes in bile canalicular pattern (primary rat hepatocytes [4]; 4 uM): changes in the canalicular pattern with visibly dilated canalicular structures
- gene expression associated with toxic response (primary rat hepatocytes [5]): upregulation of oxidative stress-related genes and compensatory upregulation of MRP3 and MRP4 genes

Molecule: N.N.[Cl][Pt][Cl] [Cisplatin, cisplatin]
- inhibited A549 growth (A549 tumor cells): 48%
- pIC50 (A549 cells; listed as cisplatin): < 5.22
- pIC50 (A549 cells): < 5.22
- Cmax [1]: 3000 nM
- Cmax ([6]; listed as cisplatin): > 10000 nM
- Cmax [6]: > 10000 nM

- total triglyceride content of hepatocytes (rat hepatocytes [7]): reduced total triglyceride content
Molecule: CCc1ccc(CCOc2ccc(CC3SC(=O)NC3=O)cc2)nc1 (centres unmarked) [pioglitazone]
- expression of metabolic genes such as Cyp3A2 (rat hepatocytes [8]): restored the expression of metabolic genes

Molecule: NC1(c2ccc(-c3nc4ccn5c(=O)[nH]nc5c4cc3-c3ccccc3)cc2)CCC1 [MK2206]
- inhibited A549 growth (A549 tumor cells): 44%
- pIC50 (A549 cells): 5.52
- Cmax [1]: 160 nM
- Cmax [6]: 540 nM

Molecule: Cn1cnc2c(F)c(Nc3ccc(Br)cc3Cl)c(C(=O)NOCCO)cc21 [AZD6244/Selumetinib, Selumetinib]
- inhibited A549 growth (A549 tumor cells): 78%
- pIC50 (A549 cells): 5.30
- Cmax [1]: 1400 nM

- glucose produced by the hepatocytes increased in the presence of the substrate (primary rat hepatocytes [2]; glycerol 2 mM, controlled hemodynamics): 67%
Molecule: OCC(O)CO [Glycerol, glycerol]

- upregulation of APEX nuclease (multifunctional DNA repair enzyme) [9]: 2.8 fold
- upregulation of glutathione reductase (GSR) [9]: 8.3 fold
- upregulation of sorbitol dehydrogenase (SORD) [9]: 6.9 fold
- upregulation of thioredoxin reductase 1 (TXNRD1) [9]: 5.5 fold
- miRNA 122 released into supernatant, over vehicle controls (primary rat hepatocytes [11]): 6 fold
Molecule: CN(C)CCCN1c2ccccc2Sc2ccc(Cl)cc21 [chlorpromazine]
- toxicity ([10]; 1 μM): 30.3%
- toxicity ([10]; 10 μM): 46.4%
- miRNA 122 levels in the supernatants compared to vehicle controls (primary rat hepatocytes [11]): did not cause any change in miRNA 122 levels
